Consider 33 compounds from patent US20100311749A1, “4-BENZOYL-1-SUBSTITUTED-PIPERAZIN-2-ONE DERIVATIVES AS P2X7 MODULATORS” (priority 2007, published 2010).

Counter-ions that a name gives are not always drawn.

In this experiment the target is T1, human P2X7 receptor (Homo sapiens, UniProt Q99572).
T1 construct: expressed in transfected cells
T1 sequence (Q99572 1-595): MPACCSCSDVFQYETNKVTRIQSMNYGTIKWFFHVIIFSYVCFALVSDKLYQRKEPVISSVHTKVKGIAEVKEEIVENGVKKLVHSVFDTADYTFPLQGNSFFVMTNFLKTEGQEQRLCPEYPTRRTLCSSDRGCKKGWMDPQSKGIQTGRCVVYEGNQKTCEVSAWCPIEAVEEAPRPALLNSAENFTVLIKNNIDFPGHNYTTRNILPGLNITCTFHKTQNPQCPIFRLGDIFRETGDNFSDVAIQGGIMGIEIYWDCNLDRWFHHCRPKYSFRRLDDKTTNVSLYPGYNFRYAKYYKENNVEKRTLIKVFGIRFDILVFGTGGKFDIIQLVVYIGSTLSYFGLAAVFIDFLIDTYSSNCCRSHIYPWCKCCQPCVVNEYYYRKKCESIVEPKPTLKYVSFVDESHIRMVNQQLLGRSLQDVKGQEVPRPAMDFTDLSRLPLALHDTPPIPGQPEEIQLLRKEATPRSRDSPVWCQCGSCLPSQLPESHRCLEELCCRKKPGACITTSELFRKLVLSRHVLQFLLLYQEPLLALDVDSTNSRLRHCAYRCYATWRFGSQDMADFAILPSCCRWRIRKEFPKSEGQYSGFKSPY
Nature of the experiment: Ethidium Accumulation Assay. Type of experiment: cell-based. The settings on record: HEK293 cells stably expressing human recombinant P2X7 receptors; 1 mM ATP; values given as 'about'; read-out: pIC50 for human P2X7 receptor antagonist activity (blocking ATP responses) in the Ethidium Accumulation Assay (converted). The procedure:
Studies were performed using NaCl assay buffer of the following composition: 140 mM NaCl, 10 mM HEPES [4-(2-hydroxyethyl)-1-piperazine-1-ethanesulfonic acid], 5 mM N-methyl-D-glucamine, 5.6 mM KCl, 10 mM D-glucose, 0.5 mM CaCl2 (pH 7.4).
Human Embryonic Kidney (HEK) 293 cells, stably expressing human recombinant P2X7 receptors, were grown in poly-D-lysine pre-treated 96 well plates for 18-24 hours. […] The cells were washed twice with 350 μl of the assay buffer, before addition of 50 μl of the assay buffer containing the putative P2X7 receptor antagonist compound. (A small amount of dimethyl sulfoxide, for initially dissolving the compound, is optionally used and present in this 50 μl test compound sample.) The cells were then incubated at room temperature (19-21° C.) for 30 min before addition of ATP and ethidium (100 μM final assay concentration). The ATP concentration was chosen to be close to the EC80 for the receptor type and was 1 mM for studies on the human P2X7 receptor. Incubations were continued for 8 or 16 min and were terminated by addition of 25 μl of 1.3M sucrose containing 4 mM of the P2X7 receptor antagonist Reactive Black 5 (Aldrich). […] Antagonist pIC50 values for blocking ATP responses were determined using iterative curve fitting techniques.
Take `Cc1c(N2CCOCC2)cccc1N1CCN(C(=O)c2cccc(C(F)(F)F)c2Cl)CC1=O` [Example 81, 4-{[2-chloro-3-(trifluoromethyl)phenyl]carbonyl}-1-[2-methyl-3-(4-morpholinyl)phenyl]-2-piperazinone]: the IC50 was 2.51 to 100 nM.
The same measure for `O=C(c1cccc(Cl)c1Cl)N1CCN(c2cc(N3CCOCC3)ccc2Cl)C(=O)C1` [Example 76, 1-[2-chloro-5-(4-morpholinyl)phenyl]-4-[(2,3-dichlorophenyl)carbonyl]-2-piperazinone]: 2.51 to 100 nM; for `CN1CCN(C(=O)c2cccc(Cl)c2Cl)CC1=O` [Example 16, 4-[(2,3-Dichlorophenyl)carbonyl]-1-methyl-2-piperazinone]: 5.01 to 200 nM.
In the case of `O=C(c1cccc(Cl)c1Cl)N1CCN(c2cccc3ccccc23)C(=O)C1` [Example 22, 4-[(2,3-dichlorophenyl)carbonyl]-1-(1-naphthalenyl)-2-piperazinone], the IC50 is 2.51 to 100 nM.
As for `Cc1ccccc1N1CCN(C(=O)c2ccc(Cl)cc2Cl)CC1=O` [Example 2, 4-[(2,4-Dichlorophenyl)carbonyl]-1-(2-methylphenyl)-2-piperazinone], the IC50 was 5.01 to 200 nM.
The same measure for `O=C(c1ccc(F)cc1Cl)N1CCN(c2cccc3ccccc23)C(=O)C1` [Example 23, 4-[(2-chloro-4-fluorophenyl)carbonyl]-1-(1-naphthalenyl)-2-piperazinone]: 2.51 to 100 nM.
For the compound `CCN1CCN(C(=O)c2cccc(Cl)c2Cl)CC1=O` [Example 17, 4-[(2,3-Dichlorophenyl)carbonyl]-1-ethyl-2-piperazinone], the IC50 was 5.01 to 200 nM.
Take `CC(C)N1CCN(C(=O)c2cccc(Cl)c2Cl)CC1=O` [Example 18, 4-[(2,3-Dichlorophenyl)carbonyl]-1-(1-methylethyl)-2-piperazinone]: the IC50 was 5.01 to 200 nM.
The same measure for `O=C(c1cccc(Cl)c1Cl)N1CCN(c2ccc(F)cc2)C(=O)C1` [Example 13, 4-[(2,3-Dichlorophenyl)carbonyl]-1-(4-fluorophenyl)-2-piperazinone]: 5.01 to 200 nM.
Turning to `Cc1ccccc1N1CCN(C(=O)c2cccc(C(F)(F)F)c2Cl)CC1=O` [Example 1, 4-{[2-Chloro-3-(trifluoromethyl)phenyl]carbonyl}-1-(2-methylphenyl)-2-piperazinone], the IC50 was 5.01 to 200 nM.
In the case of `Cc1c(N2CCOCC2)cccc1N1CCN(C(=O)c2c(Cl)cc(Cl)cc2Cl)CC1=O` [Example 82, 1-[2-methyl-3-(4-morpholinyl)phenyl]-4-[(2,4,6-trichlorophenyl)carbonyl]-2-piperazinone], the IC50 was 2.51 to 100 nM.
In the case of `O=C(c1ccc(F)cc1Cl)N1CCN(c2ccccc2Cl)C(=O)C1` [Example 5, 4-[(2-Chloro-4-fluorophenyl)carbonyl]-1-(2-chlorophenyl)-2-piperazinone] it was 5.01 to 200 nM.
In the case of `Cc1ccc(-c2ccc(C)c(N3CCN(C(=O)c4cccc(C(F)(F)F)c4Cl)CC3=O)c2)cn1` [Example 74, 4-{[2-chloro-3-(trifluoromethyl)phenyl]carbonyl}-1-[2-methyl-5-(6-methyl-3-pyridinyl)phenyl]-2-piperazinone hydrochloride] it was 2.51 to 100 nM; in that of `CC(C)c1ccccc1N1CCN(C(=O)c2cccc(Cl)c2Cl)CC1=O` [Example 27, 4-[(2,3-dichlorophenyl)carbonyl]-1-[2-(1-methylethyl)phenyl]-2-piperazinone], 2.51 to 100 nM.
Consider `Cc1ccc(Br)cc1N1CCN(C(=O)c2cccc(C(F)(F)F)c2Cl)CC1=O` [Example 53, 1-(5-bromo-2-methylphenyl)-4-{[2-chloro-3-(trifluoromethyl)phenyl]carbonyl}-2-piperazinone], for which the IC50 was 2.51 to 100 nM.
The same measure for `O=C1CN(C(=O)c2cccc(C(F)(F)F)c2Cl)CCN1CC1CCCCC1` [Example 66, 4-{[2-chloro-3-(trifluoromethyl)phenyl]carbonyl}-1-(cyclohexylmethyl)-2-piperazinone]: 2.51 to 100 nM; for `Cc1c(N2CCOCC2)cccc1N1CCN(C(=O)c2cccc(Cl)c2Cl)CC1=O` [Example 80, 4-[(2,3-dichlorophenyl)carbonyl]-1-[2-methyl-3-(4-morpholinyl)phenyl]-2-piperazinone]: 2.51 to 100 nM.
In the case of `O=C(c1ccc(F)c(F)c1Cl)N1CCN(c2ccc(F)cc2Cl)C(=O)C1` [Example 32, 4-[(2-chloro-3,4-difluorophenyl)carbonyl]-1-(2-chloro-4-fluorophenyl)-2-piperazinone] it was 2.51 to 100 nM.
In the case of `CC(C)c1ccccc1N1CCN(C(=O)c2cccc(C(F)(F)F)c2Cl)CC1=O` [Example 25, 4-{[2-chloro-3-(trifluoromethyl)phenyl]carbonyl}-1-[2-(1-methylethyl)phenyl]-2-piperazinone] it was 2.51 to 100 nM; in that of `O=C(c1cccc(C(F)(F)F)c1Cl)N1CCN(c2ccccc2Cl)C(=O)C1` [Example 9, 1-(2-Chlorophenyl)-4-{[2-chloro-3-(trifluoromethyl)phenyl]carbonyl}-2-piperazinone], 5.01 to 200 nM.
On to `Cc1ccc(N2CCC(O)C2)cc1N1CCN(C(=O)c2cccc(C(F)(F)F)c2Cl)CC1=O` (stereo not drawn) [Example 83, 4-{[2-chloro-3-(trifluoromethyl)phenyl]carbonyl}-1-[5-(3-hydroxy-1-pyrrolidinyl)-2-methylphenyl]-2-piperazinone], for which the IC50 was 2.51 to 100 nM.
With `Cc1ccccc1N1CCN(C(=O)c2cccc(Cl)c2Cl)CC1=O` [Example 4, 4-[(2,3-Dichlorophenyl)carbonyl]-1-(2-methylphenyl)-2-piperazinone], the IC50 was 5.01 to 200 nM.
In the case of `O=C(c1cccc(C(F)(F)F)c1Cl)N1CCN(c2ccc(F)cc2Cl)C(=O)C1` [Example 10, 1-(2-Chloro-4-fluorophenyl)-4-{[2-chloro-3-(trifluoromethyl)phenyl]carbonyl}-2-piperazinone] it was 5.01 to 200 nM; in that of `CCC(CC)N1CCN(C(=O)c2cccc(C(F)(F)F)c2Cl)CC1=O` [Example 47, 4-{[2-chloro-3-(trifluoromethyl)phenyl]carbonyl}-1-(1-ethylpropyl)-2-piperazinone], 2.51 to 100 nM.
For `CC(c1ccccc1)N1CCN(C(=O)c2cccc(C(F)(F)F)c2Cl)CC1=O` (stereo not drawn) [Example 85, 4-{[2-chloro-3-(trifluoromethyl)phenyl]carbonyl}-1-(1-phenylethyl)-2-piperazinone], the IC50 is 2.51 to 100 nM.
In the case of `O=C(c1cccc(Cl)c1Cl)N1CCN(c2ccc(Cl)cc2)C(=O)C1` [Example 7, 1-(4-Chlorophenyl)-4-[(2,3-dichlorophenyl)carbonyl]-2-piperazinone], the IC50 was 5.01 to 200 nM.
For `Cc1ccc(N2CCOCC2)cc1N1CCN(C(=O)c2cccc(C(F)(F)F)c2Cl)CC1=O` [Example 55, 4-{[2-chloro-3-(trifluoromethyl)phenyl]carbonyl}-1-[2-methyl-5-(4-morpholinyl)phenyl]-2-piperazinone], the IC50 is 2.51 to 100 nM.
For `O=C(c1cccc(C(F)(F)F)c1Cl)N1CCN(c2cccc3ccccc23)C(=O)C1` [Example 24, 4-{[2-chloro-3-(trifluoromethyl)phenyl]carbonyl}-1-(1-naphthalenyl)-2-piperazinone], the IC50 is 2.51 to 100 nM.
In the case of `CC(C)c1ccccc1N1CCN(C(=O)c2ccc(F)cc2Cl)CC1=O` [Example 26, 4-[(2-chloro-4-fluorophenyl)carbonyl]-1-[2-(1-methylethyl)phenyl]-2-piperazinone] it was 2.51 to 100 nM; in that of `N#Cc1cc(F)ccc1N1CCN(C(=O)c2cccc(C(F)(F)F)c2Cl)CC1=O` [Example 50, 2-(4-{[2-chloro-3-(trifluoromethyl)phenyl]carbonyl}-2-oxo-1-piperazinyl)-5-fluorobenzonitrile], 2.51 to 100 nM; in that of `O=C(c1cccc(Cl)c1Cl)N1CCN(c2ccc(F)cc2Cl)C(=O)C1` [Example 11, 1-(2-Chloro-4-fluorophenyl)-4-[(2,3-dichlorophenyl)carbonyl]-2-piperazinone], 5.01 to 200 nM.
As to `CCCN1CCN(C(=O)c2cccc(C(F)(F)F)c2Cl)CC1=O` [Example 49, 4-{[2-chloro-3-(trifluoromethyl)phenyl]carbonyl}-1-propyl-2-piperazinone], the IC50 is 2.51 to 100 nM.
The same measure for `Cc1cccc(C(=O)N2CCN(c3ccc(F)cc3Cl)C(=O)C2)c1Cl` [Example 30, 1-(2-chloro-4-fluorophenyl)-4-[(2-chloro-3-methylphenyl)carbonyl]-2-piperazinone]: 2.51 to 100 nM.
